Literature values in US12708115B2, “Inground and above ground termite trailing and recruitment products and processes” (Florida Insect Control Group LLC, priority 2023, dated 2026).

System: subterranean termites

**Q.** With OCCOc1ccccc1 [2-phenoxyethanol] as the molecule, how does the “soil-treated detection stations hit by termites” value (field, untreated stations 0 of 20) read?
**A.** 5 of 20

**Q.** And the “feeding on cellulose material surrounded by the treatment” value (soil treatment, Prescott thesis)?
**A.** feed more
